How the values were obtained:
Primary osteoblast cells = test: Assay of alkaline phosphatase activity in cultured osteoblasts; format: cell-based, rat
Procedure: Primary osteoblast cultures: Primary osteoblast cells were prepared from calvaria of 18-day-old fetal Sprague-Dawley (SD) rats according to the following method: Pregnant rats were put in anesthesia using intraperitoneal injection of trichloroacetaldehyde (200 mg/kg). The calvaria of the fetal rats were then dissected with aseptic technique. Soft tissues were removed under a dissecting microscope. The calvaria were divided into small pieces and then treated with 0.1% collagenase (Sigma Chemical, St. Louis, Mo.) solution for 10 minutes at 37° C. The cells released from the calvariae by two 20-minute sequential collagenase digestions were pooled and filtered through 70 μm nylon filters (Falcon, BD BioSciences, San Jose, Calif.). The cells were then grown on plastic cell culture dishes in 95:5 air-CO2 with Dulbecco's modified Eagle's medium (DMEM) (Gibco, Grand Island, N.Y.) which was supplemented with 20 mM HEPES and 10% heat-inactivated FCS, 2 mM-glutamine, penicillin (100 U/ml) and streptomycin (100 μg/ml) (pH adjusted to 7.6). The cell medium was changed twice a week. Osteoblasts were confirmed by morphology and expression of alkaline phosphatase (ALP). To examine the maturation of osteoblasts, cells were cultured for up to 14 days in a growth medium containing ascorbic acid (50 μg/ml) (Sigma Chemical, St. Louis, Mo.) and β-glycerophosphate (10 mM) (Sigma Chemical, St. Louis, Mo.) and the medium was changed every 3 day. Assay of alkalinephosphatase activity: Cells cultured in 6-well plates in the presence or absence of Indazole 1 were harvested in 1 ml of 0.2% Nonidet P-40 and cell suspension was disrupted by sonication. After centrifugation at 1500 g for 5 min, ALP activity in the supernatant was measured by the method of Lowry et al (1954) J Biol Chem 207:19–37.

Male SD rats = test: Local injection into proximal tibia, bone histomorphometry (bone growth); format: in vivo, rat; details: L-NAME 0.6 nmole/day given with Indazole 1, versus Indazole 1 alone
Procedure: Assay of bone resorption of osteoclast: Osteoclast precursors were isolated from rat long bones as mentioned above. The cells were re-suspended in a complete DMEM medium and plated into a calcium phosphate apatite-coated 24-well plate, OAAS (Oscotec, OCT USA Inc.) at 1×10^6 cells/0.5 ml/well. The cells were cultured for 5 days in the presence of M-CSF (20 ng/ml) plus sRANKL (50 ng/ml). Indazole 1 was injected daily for additional 3 days in the absence of M-CSF and sRANKL. Culture was terminated on day 8 and the remaining cells in the plate were lysed using 1 N NaOH. Five images per well were obtained using an inverted microscope (200×), and resorbed area was measured using an image analyzer. Local injection Male SD rats weighing 70–88 gm were used. Implantation of a cannula (22G) was done from the posteriolateral side into the proximal tibial metaphysis in both limbs of rats anesthetized with pentobarbital. The cannula had its outer end in the subcutaneous tissue. Indazole 1 was percutaneously injected through the cannula into the proximal tibia once/day for 1 week. The same concentration of DMSO diluted with normal saline was injected into the right side for comparison. On day 14, the rats were sacrificed and tibiae were fixed in 10% formaldehyde for 48 h at 4° C. Bone histomorphometry: After formalin fixation of tibia was completed, the tibiae were then decalcified in 0.5 N hydrochloric acid, dehydrated in an ascending series of ethanol solution and acetone, and embedded in paraffin. Serial sections (5 μm) were cut longitudinally and stained with Mayer's hematoxylin-eosin solution (Yang et al. (1993) Calcif Tissue Int 52:57–61). Images of the growth plate and proximal tibia were photographed using a photoMicroGraphic Digitize integrate System (MGDS; Total-Integra Technology Co., Ltd., Taipei, Taiwan). Bone volume measurements were performed on the whole secondary spongiosa, which is located under the primary spongiosa and characterized by a network of larger trabeculae. Bone volumes were calculated using an image analysis software. All measurements were done in a single-blind fashion. Bone growth: Male young rats (SD) weighing 70–90 gm were divided into six groups. The average weight of the rats in each group was 73.9±1.1 gm. Indazole 1 was dissolved in DMSO and diluted with saline to a final concentration of 10 μM. One of the six groups was a control group, and the other groups were punctuated with a needle cannula alone, injected with a vehicle using a needle cannula (day 1, once), injected with Indazole 1 (day 1, once), injected with a vehicle using a needle cannula (days 1–7, daily), and injected with Indazole 1 (days 1–7, daily), respectively. […] Trabecular bone in the secondary spongiosa increased by 90% after local injection of Indazole 1 for 7 days.

O=c1onc2cnc3ccccc3n12 [ODQ]
effect on the increase of ALP activity by Indazole 1 (Primary osteoblast cells; ODQ 20 μM): antagonized

COC(=O)[C@@]1(OC)C[C@H]2O[C@]1(C)n1c3ccccc3c3c4c(c5c6ccccc6n2c5c31)C(=O)N(C)C4 [KT5823]
effect on the increase of ALP activity by Indazole 1 (Primary osteoblast cells; KT5823 2 μM): antagonized

COC(=O)[C@@H](N)CCCNC(=N)N[N+](=O)[O-] [L-NAME, N^G-nitro-L-arginine-methylester, reference compound]
effect on enhancement of bone formation in the secondary spongiosa by Indazole 1 (Male SD rats): significantly attenuated
effect on the increase of ALP activity by Indazole 1 (Primary osteoblast cells; L-NAME 60 μM): antagonized

Source: US7160916B2, “Method of increasing bone density or treating osteoporosis” (Yung Shin Pharmaceutical Ind. Co., Ltd., priority 2003, dated 2007)
